Results published in patent US20050153894A1, “p21 peptides” (Cyclacel Limited, priority 1999, published 2005).
Square brackets hold non-standard residues; d marks the D form. Phe(4-F) = N[C@@H](Cc1ccc(F)cc1)C(=O)O; Cit = NC(=O)NCCC[C@H](N)C(=O)O; dPsa = O-acetyl-D-phenylserine; Psa = O-acetylphenylserine; Abu = CC[C@H](N)C(=O)O

Legend:
Type in all cases: biochemical
CDK2/cyclin A = CDK2/cyclin A (Homo sapiens, UniProt P20248); experiment: CDK2/cyclin A kinase assay, substrate pRb(773-928); details: for Relative activity Kinase Inhibition: pRb substrate, [ATP] = 100 μM
Description: Reactions were stopped on ice, followed by filtration through p81 filterplates (Whatman Polyfiltronics, Kent, UK).

CDK4/Cyclin D1 = target: T1, CDK4/Cyclin D1 (Homo sapiens, UniProt P24385); experiment: CDK4/Cyclin D1 kinase assay, phosphorylation of GST-Rb; details: for Kinase Inhibition Cyclin D1/CDK4 % Inhibition / Kinase Inhibition Cyclin D1/CDK4 IC30: GST-pRb substrate, [ATP] = 100 μM
T1 construct: made in house; host or cells: CDK4: Sf9 insect cells (baculovirus)
Protocol: (§1) The phosphorylation reaction mixture (total volume 40 μl) consisted of 50 mM HEPES pH 7.4, 20 mM MgCl2, 5 mM EGTA, 2 mM DTT, 20 mM β-glycerophosphate, 2 mM NaF, 1 mM Na3VO4, Protease Inhibitors Cocktail (Sigma, see above), BSA 0.5 mg/ml, 1 μg purified enzyme complex, 10 μl of GST-Rb-Sepharose beads, 100 μM ATP, 0.2 μCi ^32P-ATP. The reaction was carried out for 30 min at 30° C. at constant shaking. At the end of this period 100 μl of 50 mM HEPES, pH 7.4 and 1 mM ATP were added to each well and the total volume was transferred onto GFC filtered plate. The plate was washed 5 times with 200 μl of 50 mM HEPES, pH 7.4 and 1 mM ATP. To each well were added 50 μl scintillant liquid and the radioactivity of the samples was measured on Scintilation counter (Topcount, HP). The IC50 values of different peptides were calculated using GraFit software.
Peptides were synthesized as described above. Cyclin D1 was expressed in E coli BL21(DE3) using PET expression vector and purified from the inclusion bodies. After refolding Cyclin D1 was cross-linked on SulfoLink agarose support (PIERCE). CDK4-6×His was expressed in Sf9 insect cells infected with the appropriate baculovirus construct and purified by metal-affinity chromatography (Quiagen). […] CDK4/Cyclin D1 phosphorilation of Rb was determined by incorporation of radio-labeled phosphate in GST-Rb in 96-well format kinase assay. […] The reaction was carried out for 30 min at 30 C at constant shaking. The GST-Rb-Sepharose beads were washed with 50 mM HEPES and 1 mM ATP and the radioactivity was measured on Scintillation counter (Topcount, HP)

CDK2/Cyclin E = target: T2, CDK2/Cyclin E (Homo sapiens, UniProt P24864); experiment: CDK2/Cyclin E kinase assay, phosphorylation of GST-Rb; details: for Kinase Inhibition Cyclin E/CDK2 % Inhibition / Kinase Inhibition Cyclin E/CDK2 IC30: GST-pRb substrate, [ATP] = 100 μM
T2 construct: 6xHis; made in house; host or cells: Sf9 insect cells (baculovirus co-expression)
Protocol: as §1

[1] = relative to H-His-Ala-Lys-Arg-Arg-Leu-Ile-Phe-NH2 (SEQ ID No. 36) = 1, CDK2/cyclin A kinase assay
[2] = multiple substitutions (Example 22), relative to SEQ ID No. 36 = 1, CDK2/cyclin A kinase assay
[3] = Arg156 substitutions, relative to H-His-Ala-Lys-Arg-Arg-Leu-Ile-Phe-NH2 (=1)

T1 sequence (P24385 whole entry): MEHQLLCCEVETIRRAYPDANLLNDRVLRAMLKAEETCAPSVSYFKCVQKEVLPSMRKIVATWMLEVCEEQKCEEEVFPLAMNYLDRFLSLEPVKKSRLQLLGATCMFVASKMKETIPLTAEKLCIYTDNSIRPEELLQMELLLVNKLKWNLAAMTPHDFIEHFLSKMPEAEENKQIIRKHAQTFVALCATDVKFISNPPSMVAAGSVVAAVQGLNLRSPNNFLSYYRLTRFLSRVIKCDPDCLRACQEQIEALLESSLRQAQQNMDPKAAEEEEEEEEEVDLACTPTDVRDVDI
T1 sequence (P11802 whole entry partner): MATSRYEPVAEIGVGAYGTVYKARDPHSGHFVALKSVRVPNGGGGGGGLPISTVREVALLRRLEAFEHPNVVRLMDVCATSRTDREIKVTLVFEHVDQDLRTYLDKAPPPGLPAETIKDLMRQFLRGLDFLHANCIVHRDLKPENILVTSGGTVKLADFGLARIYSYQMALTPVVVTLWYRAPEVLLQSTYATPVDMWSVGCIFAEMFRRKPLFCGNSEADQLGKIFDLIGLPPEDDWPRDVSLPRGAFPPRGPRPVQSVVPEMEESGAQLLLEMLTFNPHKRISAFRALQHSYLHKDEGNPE

| Substance | Kinase Inhibition Cyclin D1/CDK4 % Inhibition (CDK4/Cyclin D1) [%] | Kinase Inhibition Cyclin D1/CDK4 IC30 (CDK4/Cyclin D1) [µM] | Kinase Inhibition Cyclin E/CDK2 % Inhibition (CDK2/Cyclin E) [%] | Kinase Inhibition Cyclin E/CDK2 IC30 (CDK2/Cyclin E) [µM] | other results |
| --- | --- | --- | --- | --- | --- |
| 116 (H-HSKRRLI[Psa]-OH) [compound 116] | – | – | – | – | Relative activity Kinase Inhibition (CDK2/cyclin A; [1]): <0.1 |
| H-His-Ala-Lys-Arg-Arg-Leu-Ile-[L-Psa]-OH (H-HAKRRLI[Psa]-OH) | – | – | – | – | inhibition of CDK2/cyclin A (pRb phosphorylation), in words (CDK2/cyclin A; b370: CDK2/cyclin A inhibition and/or cyclin A binding): particularly potent |
| 124 (H-AAKR[Cit]LI[Phe(4-F)]-NH2; SMILES CC[C@H](C)[C@H](NC(=O)[C@H](CC(C)C)NC(=O)[C@H](CCCNC(N)=O)NC(=O)[C@H](CCCNC(=N)N)NC(=O)[C@H](CCCCN)NC(=O)[C@H](C)NC(=O)[C@H](C)N)C(=O)N[C@@H](Cc1ccc(F)cc1)C(N)=O) [compound 124] | – | – | – | – | Relative activity Kinase Inhibition (CDK2/cyclin A; [2]): 10 |
| 126 (H-AA[Abu]RSLI[Phe(4-F)]-NH2; SMILES CC[C@H](NC(=O)[C@H](C)NC(=O)[C@H](C)N)C(=O)N[C@@H](CCCNC(=N)N)C(=O)N[C@@H](CO)C(=O)N[C@@H](CC(C)C)C(=O)N[C@H](C(=O)N[C@@H](Cc1ccc(F)cc1)C(N)=O)[C@@H](C)CC) [compound 126] | – | – | – | – | Relative activity Kinase Inhibition (CDK2/cyclin A; [2]): 14 |
| SKRRLIFSKRKP | 40 | – | 70 | 46 ± 33 | – |
| YHSKRRLIFS | 70 | 20 ± 1 | 80 | 7.3 ± 0.8 | – |
| HSKRRL | – | – | 45 | >200 | – |
| YHSKRRL | 10 | – | 30 | >200 | – |
| DFYHSKARLIFS (H-DFYHSKARLIFS-NH2) | 30 | – | 25 | – | – |
| HSKRRLIFS | 65 | 32 ± 6 | 80 | – | – |
| DFYHSKRRLIAS (H-DFYHSKRRLIAS-NH2) | 35 | – | 20 | – | – |
| DFYHSKRRLAFS | 61 | 53 ± 20 | 80 | 14 ± 3 | – |
| DFYHSKR | – | – | 50 | 200 | – |
| DFYHSKRRLI (H-DFYHSKRRLI-NH2) | 20 | – | 35 | – | – |
| H-His-Ala-Lys-Arg-Aib-Leu-Ile Phe-NH2 | – | – | – | – | Relative activity Kinase Inhibition (CDK2/cyclin A; [3]): <0.1 |
| TDFYHSKRRLIF [p21(148-159)] | – | – | – | – | inhibition of CDK4/Cyclin D1 phosphorylation of GST-Rb, in words (CDK4/Cyclin D1): active; inhibition of CDK2/Cyclin E phosphorylation of GST-Rb, in words (CDK2/Cyclin E): active |
| TSMTDFYHSKRR (H-TSMTDFYHSKRR-NH2) | 30 | – | 35 | – | – |

| Substance | Kinase Inhibition Cyclin D1/CDK4 % Inhibition (CDK4/Cyclin D1) [%] | Kinase Inhibition Cyclin D1/CDK4 IC30 (CDK4/Cyclin D1) [µM] | Kinase Inhibition Cyclin E/CDK2 % Inhibition (CDK2/Cyclin E) [%] | Kinase Inhibition Cyclin E/CDK2 IC30 (CDK2/Cyclin E) [µM] | other results |
| --- | --- | --- | --- | --- | --- |
| YHSKRRLIFSKR | 60 | 45 ± 10 | 80 | – | – |
| 117 (H-HSKRRLI[dPsa]-OH) [compound 117] | – | – | – | – | Relative activity Kinase Inhibition (CDK2/cyclin A; [1]): <0.1 |
| MTDFYHSKRRLI (H-MTDFYHSKRRLI-NH2) | 11 | – | 35 | – | – |
| 115 (H-HAKRRLI[dPsa]-OH) [compound 115] | – | – | – | – | Relative activity Kinase Inhibition (CDK2/cyclin A; [1]): <0.1 |
| 122 (H-AA[Abu]RRLI[Phe(4-F)]-NH2; SMILES CC[C@H](NC(=O)[C@H](C)NC(=O)[C@H](C)N)C(=O)N[C@@H](CCCNC(=N)N)C(=O)N[C@@H](CCCNC(=N)N)C(=O)N[C@@H](CC(C)C)C(=O)N[C@H](C(=O)N[C@@H](Cc1ccc(F)cc1)C(N)=O)[C@@H](C)CC) [compound 122] | – | – | – | – | Relative activity Kinase Inhibition (CDK2/cyclin A; [2]): 60 |
| DFYHSKRRL | 10 | – | 50 | 200 | – |
| H-His-Ala-Lys-Arg-Sar-Leu-Ile Phe-NH2 | – | – | – | – | Relative activity Kinase Inhibition (CDK2/cyclin A; [3]): <0.1 |
| YHSKRRLI | 15 | – | 45 | >200 | – |
| 114 (H-HAKRRLI[Psa]-OH) [compound 114] | – | – | – | – | Relative activity Kinase Inhibition (CDK2/cyclin A; [1]): 22 |
| 127 (H-AAKQRLI[Phe(4-F)]-NH2; SMILES CC[C@H](C)[C@H](NC(=O)[C@H](CC(C)C)NC(=O)[C@H](CCCNC(=N)N)NC(=O)[C@H](CCC(N)=O)NC(=O)[C@H](CCCCN)NC(=O)[C@H](C)NC(=O)[C@H](C)N)C(=O)N[C@@H](Cc1ccc(F)cc1)C(N)=O) [compound 127] | – | – | – | – | Relative activity Kinase Inhibition (CDK2/cyclin A; [2]): 4 |
| DFYHSKRR (H-DFYHSKRR-NH2) | 10 | – | 40 | – | – |
| DFYASKRRLIFS | 60 | 73 ± 42 | 80 | 5.1 ± 0.5 | – |
| DFYHSKRRLIFA | 60 | 40 | 70 | – | – |
| 125 (H-AAKRRLA[Phe(4-F)]-NH2; SMILES CC(C)C[C@H](NC(=O)[C@H](CCCNC(=N)N)NC(=O)[C@H](CCCNC(=N)N)NC(=O)[C@H](CCCCN)NC(=O)[C@H](C)NC(=O)[C@H](C)N)C(=O)N[C@@H](C)C(=O)N[C@@H](Cc1ccc(F)cc1)C(N)=O) [compound 125] | – | – | – | – | Relative activity Kinase Inhibition (CDK2/cyclin A; [2]): 20 |
| 123 (H-AAKRRLI[Phe(4-F)]-NH2; SMILES CC[C@H](C)[C@H](NC(=O)[C@H](CC(C)C)NC(=O)[C@H](CCCNC(=N)N)NC(=O)[C@H](CCCNC(=N)N)NC(=O)[C@H](CCCCN)NC(=O)[C@H](C)NC(=O)[C@H](C)N)C(=O)N[C@@H](Cc1ccc(F)cc1)C(N)=O) [compound 123] | – | – | – | – | Relative activity Kinase Inhibition (CDK2/cyclin A; [2]): 80 |
| FYHSKRRLIFSK | 70 | 41 ± 10 | 70 | – | – |

Continued, in another order:

| Kinase Inhibition Cyclin D1/CDK4 % Inhibition (CDK4/Cyclin D1) [%] | Kinase Inhibition Cyclin D1/CDK4 IC30 (CDK4/Cyclin D1) [µM] | Kinase Inhibition Cyclin E/CDK2 % Inhibition (CDK2/Cyclin E) [%] | Kinase Inhibition Cyclin E/CDK2 IC30 (CDK2/Cyclin E) [µM] | Substance | other results |
| --- | --- | --- | --- | --- | --- |
| 80 | 34 ± 6 | 90 | – | HSKRRLIFSKRK | – |
| 30 | – | 30 | – | DFYHSKRRAIFS (H-DFYHSKRRAIFS-NH2) | – |
| 50 | 200 | 80 | 12.9 ± 2.4 | DFYHSARRLIFS | – |
| 56 | 121 ± 31 | 80 | 5.3 ± 0.6 | DFAHSKRRLIFS | – |
| 72 | 22 ± 4 | 70 | 11 ± 2 | AFYHSKRRLIFS | – |
| 18 | – | 40 | – | SMTDFYHSKRRL (H-SMTDFYHSKRRL-NH2) | – |
| 76 | 37 ± 6 | 85 | 5.9 ± 0.4 | DAYHSKRRLIFS | – |
| 70 | 16 ± 1 | 80 | 7 ± 2 | YHSKRRLIF | – |
| 20 | – | 45 | >200 | FYHSKRR | – |
| 72 | 15 ± 3 | 85 | – | TDFYHSKRRLIF | – |
| 20 | – | 48 | >200 | FYHSKRRL | – |
| 10 | – | 45 | 200 | DFYHSK | – |
| 70 | 13 ± 2 | 75 | 2 ± 0.2 | DFYHSKRRLIF | – |
| 30 | – | 70 | 30 ± 8 | DFYHSKRALIFS | – |
